One may read the pEC50 as the negative decadic logarithm of the EC50, by convention in mol/L.

The values below come from BindingDB's records for doi:10.1021/jm501636x (University of Massachusetts Medical School, 2015).

The experiment can be described thus: Inhibition of PAD4 in C57BL/6 mouse bone marrow neutrophils assessed as inhibition of PMA-stimulated neutrophil extracellular trap formation preincubated for 30 mins followed by PMA stimulation measured after 3 to 4 hrs by DNA/neutrophil elastase overlap assay.

pEC50: −log10 of the molar value.

For `CC(C)(C)n1nnc([C@H](CCCNC(=N)CCl)NC(=O)c2ccc(-c3ccccc3)cc2)n1`, the pEC50 was 4.70.
